In patent US20260209215A1, “GLYCINE DERIVATIVES WITH P2X4 RECEPTOR-BLOCKING ACTIVITY AS DIAGNOSTICS AND FOR THE TREATMENT OF PAIN, INFLAMMATION, CANCER, AND OTHER P2X4 RECEPTOR-RELATED DISEASES” (RHEINISCHE-FRIEDRICH-WILHELMS-UNIVERSITÄT BONN, priority 2022, published 2026) one finds IC50 data, which are given here for 15 molecules.

This test has as its target T1, P2X4 receptor (Homo sapiens, UniProt Q99571).
T1 construct: expressed in transfected cells; host or cells: 1321N1 astrocytoma cells, retroviral vector pQCXIN, G418 selection, monoclones
T1 sequence (Q99571 1-388): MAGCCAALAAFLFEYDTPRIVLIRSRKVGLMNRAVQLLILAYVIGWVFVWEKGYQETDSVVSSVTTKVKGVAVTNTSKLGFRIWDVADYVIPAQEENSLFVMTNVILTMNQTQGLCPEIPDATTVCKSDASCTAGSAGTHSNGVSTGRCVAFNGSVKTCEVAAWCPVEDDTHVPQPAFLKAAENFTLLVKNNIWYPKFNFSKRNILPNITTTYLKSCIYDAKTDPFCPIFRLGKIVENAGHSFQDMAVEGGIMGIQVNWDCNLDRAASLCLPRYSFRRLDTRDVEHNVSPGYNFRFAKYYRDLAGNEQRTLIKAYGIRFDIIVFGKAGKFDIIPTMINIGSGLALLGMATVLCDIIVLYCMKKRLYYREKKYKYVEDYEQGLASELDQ
Briefly: Measurement of Ca2+ influx in transfected 1321N1 astrocytoma cells (P2X4 inhibitory potency). Type of test: cell-based. The conditions noted are these: agonist-mediated Ca2+ influx, FLUO-4, 1321N1 astrocytoma cells; antagonists added 30 min before agonist. A digest of the protocol:
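Stable 1321N1 astrocytoma cells expressing human P2X4, loaded with FLUO-4 AM (2.4 μM) in HBSS/HEPES pH 7.3 for 1 h at 23 °C. Antagonists added 30 min before agonist; fluorescence at 520 nm recorded for 30 s. Compounds tested at 7–8 concentrations spanning three log units.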
The term IC50 denotes the concentration that gives 50% inhibition. Higher therefore signals weaker potency in that assay. The molecule `CCc1noc(-c2ccc(OC)c(NCC(=O)c3c[nH]c4cc(OC)ccc34)c2)n1` [Example 96, 2-((5-(3-ethyl-1,2,4-oxadiazol-5-yl)-2-methoxyphenyl)amino)-1-(6-methoxy-1H-indol-3-yl)ethan-1-one] yielded an IC50 of 0.1 to 19 nM. Then `COC(=O)C1CN(C(=O)CNc2cc(-c3nc(C)ns3)ccc2C)c2ccccc21` (stereo not drawn) [Example 57, methyl 1-((2-methyl-5-(3-methyl-1,2,4-thiadiazol-5-yl)-phenyl)glycyl)indoline-3-carboxylate], with above 100 nM; and `Cc1ccc(-c2nc(C3CC3)ns2)cc1NCC(=O)N1CCc2c(OCC(C)(C)O)cccc21` [Example 38, 2-((5-(3-cyclopropyl-1,2,4-thiadiazol-5-yl)-2-methylphenyl)amino)-1-(4-(2-hydroxy-2-methylpropoxy)-indolin-1-yl)ethan-1-one], with 20 to 39 nM. The molecule `Cc1nsc(-c2ccc(C)c(NCC(=O)N3CCc4c3cncc4C(C)(C)O)c2)n1` [Example 91, 1-(4-(2-Hydroxypropan-2-yl)-2,3-dihydro-1H-pyrrolo[2,3-c]pyridin-1-yl)-2-((2-methyl-5-(3-methyl-1,2,4-thiadiazol-5-yl)phenyl)amino)ethan-1-one] showed an IC50 above 100 nM. In turn, `C=Cc1nsc(-c2ccc(C)c(NCC(=O)N3CCc4c(OCCOCCO)cccc43)c2)n1` [Example 18, 1-(4-(2-(2-hydroxyethoxy)ethoxy)indolin-1-yl)-2-((2-methyl-5-(3-vinyl-1,2,4-thiadiazol-5-yl)phenyl)amino) ethan-1-one] showed a concentration for half-maximal inhibition (IC50) of 0.1 to 19 nM. On to `Cc1ccc(-c2nc(C(F)F)ns2)cc1NCC(=O)N1CCc2c1cccc2C(C)(O)CO` (stereo not drawn) [Example 61, 2-((5-(3-(difluoromethyl)-1,2,4-thiadiazol-5-yl)-2-methylphenyl)amino)-1-(4-(1,2-dihydroxypropan-2-yl)indolin-1-yl)ethan-1-one], for which the IC50 lay within 0.1 to 19 nM. In the case of `Cc1nsc(-c2ccc(C)c(NCC(=O)c3cn4c5c(cccc35)OCC(C)(O)C4)c2)n1` (stereo not drawn) [Example 105, 1-(3-hydroxy-3-methyl-3,4-dihydro-2H-[1,4]oxazepino[2,3,4-hi]indol-7-yl)-2-((2-methyl-5-(3-methyl-1,2,4-thiadiazol-5-yl)phenyl)-amino)ethan-1-one], the IC50 was 20 to 39 nM.

As to `Cc1nsc(-c2ccc(C)c(NCC(=O)N3CCc4c(NC(=O)[C@H]5CCCN5)cccc43)c2)n1` [Example 81, (R)-N-(1-((2-methyl-5-(3-methyl-1,2,4-thiadiazol-5-yl)phenyl)glycyl)indolin-4-yl) pyrrolidine-2-carboxamide], the IC50 was in the range of 0.1 to 19 nM. Then `Cc1nsc(-c2ccc(C)c(NCC(=O)N3CCc4nc(Cl)ccc43)c2)n1` [Example 10, 1-(5-chloro-2,3-dihydro-1H-pyrrolo[3,2-b]pyridin-1-yl)-2-((2-methyl-5-(3-methyl-1,2,4-thiadiazol-5-yl)phenyl)amino)ethan-1-one], with 70 to 99 nM; and `Cc1nsc(-c2ccc(C)c(NCC(=O)N3CCc4c3cccc4N3C(=O)CCC3=O)c2)n1` [Example 17, 1-(1-((2-methyl-5-(3-methyl-1,2,4-thiadiazol-5-yl)phenyl)glycyl)indolin-4-yl) pyrrolidine-2,5-dione], with 0.1 to 19 nM. Then `Cc1nsc(-c2ccc(C)c(NCC(=O)N3CCc4c(OCCOCCO)cccc43)c2)n1` [Example 31, 1-(4-(2-(2-hydroxyethoxy)-ethoxy)indolin-1-yl)-2-((2-methyl-5-(3-methyl-1,2,4-thiadiazol-5-yl)phenyl)-amino)ethan-1-one], with 20 to 39 nM. `CCc1noc(-c2ccc(C)c(NCC(=O)c3cn(C)c4ccccc34)c2)n1` [Example 111, 2-((5-(3-ethyl-1,2,4-oxadiazol-5-yl)-2-methylphenyl)amino)-1-(1-methyl-1H-indol-3-yl)ethan-1-one] displayed a 50% inhibitory concentration (IC50) of 40 to 69 nM. Then `Cc1ccc(-c2nc(C(F)F)ns2)cc1NCC(=O)N1CCc2c1cccc2C(C)(C)O` [Example 40, 2-((5-(3-(difluoromethyl)-1,2,4-thiadiazol-5-yl)-2-methylphenyl)amino)-1-(4-(2-hydroxypropan-2-yl)indolin-1-yl) ethan-1-one], with 20 to 39 nM; and `Cc1nsc(-c2ccc(C)c(NCC(=O)N3CCc4c3cccc4-n3ccnc3)c2)n1` [Example 48, 1-(4-(1H-imidazol-1-yl)indolin-1-yl)-2-((2-methyl-5-(3-methyl-1,2,4-thiadiazol-5-yl)phenyl)amino)ethan-1-one], with 20 to 39 nM. Under `CCc1nsc(-c2ccc(C)c(NCC(=O)N3CCc4c(OC(F)(F)C(=O)O)cccc43)c2)n1` [Example 87, 2-((1-((5-(3-ethyl-1,2,4-thiadiazol-5-yl)-2-methyl-phenyl)glycyl)indolin-4-yl)oxy)-2,2-difluoro-acetic acid] stands 40 to 69 nM.
